# Reference: US20110294741A1, “USE OF COMPOUNDS IN THE TREATMENT OF TAU-INDUCED CYTOTOXICITIES” (Bioalvo-Servicos, Investigacao e Desenvolvimento em …, priority 2008, published 2011)
# Assays:
# CYP3A4 = CYP3A4 (Homo sapiens, UniProt P08684); experiment: CYP inhibition; assay type: in vitro ADME; settings: probe substrates midazolan and testosterone
# Excerpt: CYP3A4 is one of the most important enzymes involved in the metabolism of xenobiotics in the body, promoting the oxidation of the largest range of substrates of all the CYPs and is present in the largest quantity of all the CYPs in the liver.
# rats (Wister, male) = experiment: In vivo toxicology: hepatotoxicity markers in the plasma; set-up: species or system rat; settings: i.p. once a day 3.23 mg-100 g body mass, seven days
# Method: The toxicological studies were carried out with rats (Wister, male) injected i.p. once a day with 3.23 mg-100 g body mass during seven days.
# Liver is the major organ of toxicity. Blood samples were collected and the following hepatotoxicity markers were assayed in the plasma: • Alanine transaminase (ALT), • Aspartate transaminase (AST) • Alkaline phosphatase (ALP) • Total bilirubin (TBIL) • Gamma glutamyl transpeptidase (GGT)
# Increased levels of the liver enzymes ALT, AST, ALP and GGT in the plasma indicate lesions in liver. Increased RBL would be a sign of faulty bilirubin production/hemolysis and/or bilirubin metabolism (in liver).
# [1] = Plasma serum stability of KTP-NH2 analogues; assay type: in vitro ADME; settings: Human Serum, test concentration 400 uM, 1-hour incubation
# Method: In order to increase the potential of KTP-NH2 as a drug for systemic administration, derivatives with improved plasma stability were generated, and tested, including different isomers of KTP-NH2 and methylated versions of KTP-NH2 isomers: • L-Tyrosyl-D-Arginine-NH2 • D-Tyrosyl-D-Arginine-NH2 • D-Tyrosyl-L-Arginine-NH2 • Methyl-L-Tyrosyl-L-Arginine-NH2 • Methyl-L-Tyrosyl-D-Arginine-NH2
# These analogues were tested for plasma serum stability, in comparison with KTP-NH2.
# Sequence of CYP3A4 (P08684 whole entry): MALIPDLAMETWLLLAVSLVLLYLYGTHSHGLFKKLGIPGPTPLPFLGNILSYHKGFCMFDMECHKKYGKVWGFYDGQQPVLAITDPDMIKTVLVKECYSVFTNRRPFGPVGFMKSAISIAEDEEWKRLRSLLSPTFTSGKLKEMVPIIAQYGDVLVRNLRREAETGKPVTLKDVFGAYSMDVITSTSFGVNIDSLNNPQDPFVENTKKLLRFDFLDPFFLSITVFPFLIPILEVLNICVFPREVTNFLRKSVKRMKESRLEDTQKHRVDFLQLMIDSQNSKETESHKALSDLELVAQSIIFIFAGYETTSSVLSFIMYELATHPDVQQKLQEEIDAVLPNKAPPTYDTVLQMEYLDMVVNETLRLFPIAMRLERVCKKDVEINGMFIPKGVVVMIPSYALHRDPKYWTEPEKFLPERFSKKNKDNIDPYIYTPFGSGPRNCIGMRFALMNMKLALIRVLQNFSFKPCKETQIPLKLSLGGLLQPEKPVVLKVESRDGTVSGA
compound,measurement,setting,value
"N=C(N)NCCCC(NC(=O)C(N)Cc1ccc(O)cc1)C(N)=O [KTP-NH2, L-Tyr-L-Arg-NH2]",CYP3A4 inhibition,CYP3A4,not to inhibit
same,GGT in plasma,"rats (Wister, male)",below the detection limit
same,"hepatotoxicity markers in plasma (AST, ALT, ALP, total bilirubin) versus control animals","rats (Wister, male)",no toxic effects were detected
same,Mean Parent Remaining (%),[1],14.00%
